Like-named read-outs stand apart in the source and are kept apart here.
How the values were obtained:
mast cells = test: Inhibition of histamine release from mast cells due to an antigen-antibody reaction (in vitro; ovalbumin-sensitized); type: cell-based, Wister male rats; settings: Mast cell; rat peritoneal mast cells; antigenic ovalbumin 10^-4 g/ml; 5 min pre-incubation, 10 min incubation at 37° C.; corrected for spontaneous release; read-out: concentration showing 50% inhibition of histamine release
Acute toxicity (LD50) = settings: in vivo
[1] = ip, read-out: LD50 values (i.p.)
[2] = po, read-out: LD50 values (p.o.)

Structure (SMILES)	IC50 (mast cells) [µg/mL]	LD50 (Acute toxicity (LD50); [1]) [mg/kg]	LD50 (Acute toxicity (LD50); [2]) [mg/kg]
Cc1c(C)c2c(c(C)c1O[C@@H]1O[C@H](CO)[C@@H](O)[C@H](O)[C@@H]1O)CCC(C)(CCCC(C)CCCC(C)CCCC(C)C)O2 (mixture of isomers) [dl-α-tocopherylmannoside, dl-α-Tocopherylmannoside]	~15	> 500	> 5000
Cc1c(C)c2c(c(C)c1OC1O[C@H](CO)[C@@H](O)[C@H](O)[C@H]1O)CCC(C)(CCCC(C)CCCC(C)CCCC(C)C)O2 (mixture of isomers) [dl-α-tocopherylglucoside, dl-α-Tocopherylglucoside]	~50	> 500	> 5000

— US4617292A, “Pharmaceutical compositions and method for inhibiting histamine release tocopheryl glycoside” (Sunstar Kabushiki Kaisha, priority 1984, dated 1986)
